The record followed here is ChEMBL document CHEMBL1201862, “PubChem BioAssay data set” (2004).

The target in assay [1] is T1, Polyadenylate-binding protein 1 (Homo sapiens, UniProt P11940). Briefly: PABP1 MLLE–PAM2 binding inhibitor potency, dose response, biochemical, fluorescence polarization, FITC-PAM2 peptide (AID 602259). It counts as functional. Particulars: read-out: IC50_Mean.
In the next assay the target is T2, Streptokinase A (Streptococcus pyogenes serotype M1, UniProt P10520).
T2 sequence (P10520 whole entry): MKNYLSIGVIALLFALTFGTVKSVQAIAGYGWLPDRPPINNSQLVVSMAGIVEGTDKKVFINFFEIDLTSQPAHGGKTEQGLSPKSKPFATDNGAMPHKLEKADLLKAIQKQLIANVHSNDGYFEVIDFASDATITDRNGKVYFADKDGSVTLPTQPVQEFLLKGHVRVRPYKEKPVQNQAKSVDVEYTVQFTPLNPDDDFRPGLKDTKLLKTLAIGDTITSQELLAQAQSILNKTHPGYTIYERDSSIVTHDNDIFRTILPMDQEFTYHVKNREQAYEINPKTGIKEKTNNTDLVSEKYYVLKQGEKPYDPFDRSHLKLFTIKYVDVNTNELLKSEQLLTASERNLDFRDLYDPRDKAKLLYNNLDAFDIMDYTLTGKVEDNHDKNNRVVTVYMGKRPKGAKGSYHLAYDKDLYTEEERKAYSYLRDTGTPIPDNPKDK
As to the kind of experiment: S. pyogenes streptokinase expression inhibitors, potency, dose response, plasminogen activation absorbance, OD405 (AID 1914).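 Note: secreted streptokinase activity via plasminogen activation per viability signal from cell pellet.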 It counts as functional, Streptococcus pyogenes M1 GAS.

In assay [2] the target is T1, Polyadenylate-binding protein 1. Briefly: PABP1 MLLE–PAM2 interaction inhibitors, dose response, miRNA deadenylation inhibitor project, biochemical, fluorescence polarization, Cy5-PAM2 peptide, secondary (AID 602260). Particulars: read-out: IC50_Mean. It counts as functional. A general note: In fluorescence polarisation assays a small probe gives low polarisation when free and higher when bound to something large.

Assay [3] has as its target T3, RNA-binding protein pos-1 (Caenorhabditis elegans, UniProt G5EF15).
T3 sequence (G5EF15 whole entry): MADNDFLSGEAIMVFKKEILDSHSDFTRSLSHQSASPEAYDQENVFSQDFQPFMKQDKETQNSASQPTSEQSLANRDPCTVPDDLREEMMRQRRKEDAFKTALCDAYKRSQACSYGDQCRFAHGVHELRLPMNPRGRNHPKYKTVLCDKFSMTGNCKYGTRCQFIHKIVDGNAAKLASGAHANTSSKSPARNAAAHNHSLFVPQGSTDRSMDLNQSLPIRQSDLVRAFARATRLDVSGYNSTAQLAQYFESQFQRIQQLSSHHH
As to the kind of experiment: inhibitors of POS-1/mex-3 RNA binding, dose response, biochemical, fluorescence polarization (AID 1964).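 Note: purified POS-1 fused to maltose binding protein made in E. coli; potency of compounds blocking POS-1 binding to fluorescent RNA.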

For assay [4], the target named is T4, Zinc finger protein mex-5 (Caenorhabditis elegans, UniProt Q9XUB2).
T4 sequence (Q9XUB2 whole entry): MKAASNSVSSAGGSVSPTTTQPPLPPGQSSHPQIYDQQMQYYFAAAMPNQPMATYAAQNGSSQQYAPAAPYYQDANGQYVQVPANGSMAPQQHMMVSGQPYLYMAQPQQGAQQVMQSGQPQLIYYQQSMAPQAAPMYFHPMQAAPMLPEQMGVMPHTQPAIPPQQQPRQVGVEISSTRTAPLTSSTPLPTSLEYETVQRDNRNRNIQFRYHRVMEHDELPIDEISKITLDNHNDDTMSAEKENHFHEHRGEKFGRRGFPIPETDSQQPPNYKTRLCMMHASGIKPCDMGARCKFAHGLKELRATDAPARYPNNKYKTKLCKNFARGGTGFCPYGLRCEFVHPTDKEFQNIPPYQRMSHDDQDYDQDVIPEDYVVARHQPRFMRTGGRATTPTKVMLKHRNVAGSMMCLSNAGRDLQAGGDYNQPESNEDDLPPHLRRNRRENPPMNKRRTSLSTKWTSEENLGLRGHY
Briefly: MEX-5/TCR-2 RNA interaction inhibitors, dose response, biochemical, C. elegans, fluorescence polarization (AID 1960).

A further assay has as its target T5, Protein skinhead-1 (Caenorhabditis elegans, UniProt P34707).
T5 sequence (P34707 whole entry): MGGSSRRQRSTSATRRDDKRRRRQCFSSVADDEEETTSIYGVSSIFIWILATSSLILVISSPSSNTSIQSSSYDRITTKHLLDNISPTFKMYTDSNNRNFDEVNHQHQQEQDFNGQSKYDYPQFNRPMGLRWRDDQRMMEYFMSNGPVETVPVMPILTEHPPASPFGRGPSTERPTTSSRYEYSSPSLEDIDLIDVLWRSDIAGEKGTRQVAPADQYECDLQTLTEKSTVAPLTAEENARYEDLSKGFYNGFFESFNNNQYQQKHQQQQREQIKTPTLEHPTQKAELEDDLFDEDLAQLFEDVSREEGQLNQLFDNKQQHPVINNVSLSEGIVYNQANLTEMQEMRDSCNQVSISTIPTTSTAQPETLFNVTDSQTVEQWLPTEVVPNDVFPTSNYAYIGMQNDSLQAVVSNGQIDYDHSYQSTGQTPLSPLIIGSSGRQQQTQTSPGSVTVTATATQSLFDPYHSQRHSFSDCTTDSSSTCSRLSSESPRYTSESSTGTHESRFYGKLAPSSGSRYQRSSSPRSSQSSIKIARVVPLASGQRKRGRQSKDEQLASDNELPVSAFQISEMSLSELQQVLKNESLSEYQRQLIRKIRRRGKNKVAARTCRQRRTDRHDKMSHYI
It counts as functional.

The test system of a further assay is Streptococcus. As to the kind of experiment: Group A Streptococcus viability loss, dose response, counter-screen for streptokinase expression inhibitor project, luminescence, BacTiterGlo (AID 1915).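 Note: potency for reduction of bacterial viability or growth.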 It counts as functional, organism-based.
Assay [5] concerns Streptococcus sp. 'group A'. As to the kind of experiment: growth inhibition of control SK(-) GAS strain, dose response, counter-screen for streptokinase expression inhibitor project, luminescence, kanamycin, BacTiterGlo, confirmation (AID 1900). It counts as functional, organism-based. A general note: Counterscreens check selectivity or assay interference.
Assay [6] concerns the target T6, Replicative DNA helicase DnaB (Mycobacterium tuberculosis, UniProt P9WMR3).
T6 sequence (P9WMR3 whole entry): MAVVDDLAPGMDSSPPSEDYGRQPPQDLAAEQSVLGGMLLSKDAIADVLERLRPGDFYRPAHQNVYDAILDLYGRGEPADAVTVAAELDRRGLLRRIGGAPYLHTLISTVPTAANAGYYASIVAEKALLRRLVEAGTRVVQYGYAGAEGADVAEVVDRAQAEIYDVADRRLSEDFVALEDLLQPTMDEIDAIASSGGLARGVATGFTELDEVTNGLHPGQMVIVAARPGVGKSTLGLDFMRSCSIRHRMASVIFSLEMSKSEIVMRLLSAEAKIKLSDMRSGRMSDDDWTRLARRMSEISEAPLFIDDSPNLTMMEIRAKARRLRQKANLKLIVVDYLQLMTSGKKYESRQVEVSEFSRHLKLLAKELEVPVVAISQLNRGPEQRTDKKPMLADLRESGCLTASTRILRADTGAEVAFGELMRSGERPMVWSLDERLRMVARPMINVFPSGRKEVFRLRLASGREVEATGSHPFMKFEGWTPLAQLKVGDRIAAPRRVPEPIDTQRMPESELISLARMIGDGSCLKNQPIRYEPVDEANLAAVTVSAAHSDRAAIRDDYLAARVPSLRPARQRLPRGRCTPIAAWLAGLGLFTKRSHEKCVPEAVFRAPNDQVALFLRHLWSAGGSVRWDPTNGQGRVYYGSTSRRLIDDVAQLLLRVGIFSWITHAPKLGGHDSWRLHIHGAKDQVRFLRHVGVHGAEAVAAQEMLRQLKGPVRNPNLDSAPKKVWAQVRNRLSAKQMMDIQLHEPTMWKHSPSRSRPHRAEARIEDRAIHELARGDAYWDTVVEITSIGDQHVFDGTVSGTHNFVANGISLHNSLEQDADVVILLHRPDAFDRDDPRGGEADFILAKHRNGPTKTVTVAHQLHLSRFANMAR
Briefly: DnaB intein splicing inhibitors, dose response, biochemical, cell-free fluorescence (AID 449749). It counts as functional.

Assay [7] can be described thus: cells. It counts as functional, cell-based.
A short description of assay [8]: cells. It counts as functional, cell-based. This is another data set of the same source.
Assay [9] can be described thus: microbe, parasite or virus in culture. It counts as functional. The conditions noted are these: Mycobacterium tuberculosis.
Assay [10] addresses T7, Ubiquitin-conjugating enzyme E2 N (Homo sapiens, UniProt P61088).
T7 sequence (P61088 whole entry): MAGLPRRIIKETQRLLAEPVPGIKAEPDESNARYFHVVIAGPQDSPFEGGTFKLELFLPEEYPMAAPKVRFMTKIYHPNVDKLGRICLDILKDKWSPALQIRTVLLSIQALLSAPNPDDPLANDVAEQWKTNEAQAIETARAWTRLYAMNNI
It counts as functional.

Assay [11] can be described thus: Luminescence Cell-Based Dose Response HTS to Identify Activators of Luciferase Translation or Activity in H4 […] Cells. [Related pubchem assays: 1829 (Project Summary), 1814 (Primary HTS)]. It counts as functional.
The subject of the next assay is H4. Briefly: Luminescence Cell-Based Dose Response HTS to Identify Activators of 5'UTR Stem-Loop Driven Prion Protein mRNA Translation in H4 Neuroglioblastoma Cells. [Related pubchem assays: 1829 (Project Summary), 1814 (Primary HTS)]. It counts as functional. The conditions noted are these: Homo sapiens.

Structures are written as SMILES. Calls of active or inactive are those of the source. Cut-off read from the data, not from the text of the source, for most assays here: actives have a measured EC50 and inactives only a lower limit.

T1 sequence (P11940 whole entry): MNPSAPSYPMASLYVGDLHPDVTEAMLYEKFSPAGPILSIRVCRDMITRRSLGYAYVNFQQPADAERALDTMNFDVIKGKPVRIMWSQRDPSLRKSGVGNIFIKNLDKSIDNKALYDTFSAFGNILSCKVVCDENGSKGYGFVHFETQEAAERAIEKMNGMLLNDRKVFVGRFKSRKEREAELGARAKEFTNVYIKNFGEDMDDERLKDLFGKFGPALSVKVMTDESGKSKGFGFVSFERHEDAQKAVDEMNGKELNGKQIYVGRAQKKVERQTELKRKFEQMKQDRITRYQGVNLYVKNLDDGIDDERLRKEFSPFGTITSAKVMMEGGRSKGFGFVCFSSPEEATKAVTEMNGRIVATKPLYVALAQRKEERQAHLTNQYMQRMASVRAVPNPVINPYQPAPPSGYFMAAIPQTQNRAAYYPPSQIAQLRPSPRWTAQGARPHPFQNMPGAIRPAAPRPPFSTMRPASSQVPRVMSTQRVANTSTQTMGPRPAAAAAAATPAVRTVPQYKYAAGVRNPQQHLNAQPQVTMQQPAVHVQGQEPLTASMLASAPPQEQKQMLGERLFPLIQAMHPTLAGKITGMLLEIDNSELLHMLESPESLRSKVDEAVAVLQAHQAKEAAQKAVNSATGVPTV

As to `Cc1cccc(NC(=S)Nc2ccc(Cl)c(Cl)c2)c1`, the IC50 in assay [1] and in assay [2] was > 66 µM (inactive) each time. The EC50 at Streptokinase A was 24.5 µM (active).
With `CCCCOc1c(Br)cc(/C=N/O)cc1OCC`, the EC50 in assay [3] and in [4] was > 300 µM (not active) throughout.
Consider `O=C1CCn2c1c(O)c1ccccc1c2=O`, for which the values for the IC50 in assay [1] and in assay [2] were 43.6 µM (inactive) and > 66 µM (inactive), respectively.
For `CCc1ccc(-c2nn(-c3cc(Cl)ccc3[N+](=O)[O-])c(=O)c3ccccc23)cc1`, the IC50 on Protein skinhead-1 was > 100 µM (inactive).
`OCCN(CCO)c1ccc(C(c2ccccc2Cl)c2ccc(N(CCO)CCO)cc2Cl)c(Cl)c1`: the concentration for a half-maximal effect (EC50) on Streptokinase A was 4.84 µM (active); in the assay on Streptococcus it was 8.65 µM (active); in [5], 4.01 µM (active). Besides, the IC50 at Protein skinhead-1 is > 100 µM (inactive). Further, the AC50 in [6] is 1.91 µM (active).
Consider `COc1ccc(NS(=O)(=O)c2ccc(F)c(Cl)c2)cn1`, for which the results for the IC50 in assay [1] and in [2] were 24.2 µM (inactive) and 46.2 µM (inactive), respectively.
Consider `Nc1ccc2c(c1)C/C(=C/c1ccco1)C2=O`, for which the EC50 is 23 µM (active) in assay [3] and 14.3 µM (active) in assay [4].
`Cc1ccc(-c2nc(/C=N/c3ccc(O)cc3)c(O)o2)cc1`: the EC50 in [3] and in [4] was > 300 µM (not active) in each case.
Turning to `CC(C)C(OC(=O)C1=Cc2ccccc2OC1)C(=O)NC1CCCC1` (stereo not given), on Protein skinhead-1, the IC50 is > 100 µM (inactive).
Consider `CC1CCN(Cc2nnnn2CCCC(=O)NCCc2cnn(C)c2)CC1`, for which the EC50 in “cells [7]” and in the assay “cells [8]” was > 350 µM (not active) throughout.
With `Cn1c(CC(=O)Nc2ccccc2)cc2ccccc21`, the EC50 in the assay “cells [7]” and in “cells [8]” was > 350 µM (not active) in each case.
`CCOc1ccc(-c2nnc(-c3cccs3)o2)cc1`: the IC50 on Protein skinhead-1 is > 100 µM (inactive).
Still for that read-out and setting: the value for `Clc1ccccc1-c1ccc(CN2CCN(c3ccccc3)CC2)o1` was > 100 µM (inactive).
Regarding `CC/C(NN1CCCCCC1)=C1/C(=O)NC(=O)N(c2ccc(C)cc2)C1=O`, the EC50 in “cells [7]” and in “cells [8]” was > 350 µM (not active) throughout.
Consider `COc1ccc(C(=O)C2CCCN(C(=O)C3CCOCC3)C2)cc1OC` (stereo not given), for which the half-maximal effective concentration (EC50) in the assay “cells [7]” and in “cells [8]” was > 350 µM (not active) each time.
Regarding `O=C(NCCCN1CCOCC1)c1cc2c3ccccc3nc-2c(-c2cccc(Br)c2)[nH]1`, the CC50 in assay [9] was 19.4 µM (active). In addition, the IC50 in assay [10] is > 20 µM (inactive).
In the case of `Cc1nn(CC(C)C)c(Cl)c1C(=O)NC1CCC(C)CC1` (stereo not given), the results for the EC50 (in assay [11]; in the assay with H4) were 0.258 µM (active) and 1.19 µM (active), respectively.
With `CCN(CC)C(=O)c1sc2nc(-c3cccs3)cc(-c3cccs3)c2c1N`, the EC50 in assay [3] and in assay [4] was > 300 µM (not active) in each case.
`O=C(C1=C[C@@H](C2CC2)C[C@@H](OCCCCO)O1)N1CCN(Cc2ccc3c(c2)OCO3)CC1`: the EC50 in the assay “cells [7]” and in “cells [8]” was > 350 µM (not active) throughout.
For the compound `CNS(=O)(=O)c1ccc2c(c1)nc(S)n2C`, the IC50 at Protein skinhead-1 was > 100 µM (inactive).
As for `CC(C)=CCc1c(O)cc(O)c2c(=O)c(O[C@@H]3O[C@@H](C)[C@H](O)[C@@H](O)[C@H]3O)c(-c3ccc(O)cc3)oc12`, in assay [10], the IC50 was > 20 µM (inactive).
As to `COC(=O)c1ccccc1-n1c(CCC(=O)O)ccc1-c1ccc(F)cc1`, the half-maximal effective concentration (EC50) in [3] and in [4] was > 300 µM (not active) in each case.
As to `Cc1ccc(C(C(=O)NC(C)(C)C)N(Cc2ccccc2)C(=O)c2snc(C(N)=O)c2N)o1` (stereo not given), the IC50 in assay [10] was > 20 µM (inactive).
Turning to `COCCn1cc(C(=O)NCc2cccs2)c2c3ccccc3n(C)c2c1=O`, the IC50 on Protein skinhead-1 was > 100 µM (inactive).
In the case of `O=C(CSc1n[nH]c2c3ccccc3nc-2n1)NCc1ccco1`, the IC50 in assay [1] and in [2] was > 66 µM (inactive) each time.
In the case of `Fc1ccc(NC(S)=Nc2ccc(Br)cc2)cc1`, the IC50 in assay [1] and in assay [2] was > 66 µM (inactive) in each case.
In the case of `CC1=CC(C)(C)N2C(=O)C3(C(C#N)=C(N)OC4=C3C(=O)CC(C)(C)C4)c3c(C)c(C)cc1c32` (stereo not given), the EC50 in assay [3] and in [4] was > 300 µM (not active) throughout.

The term EC50 denotes the concentration needed to bring the measured effect to its halfway point. For orientation: AC50 means the concentration giving half of the maximal activity seen.
